Read-outs that look alike come from different tables or passages of the source.
How the values were obtained:
Providencia stuartii = experiment: Expected efficacy of antibiotic agents; conditions: Gram: neg
Shigella flexneri = experiment: Expected efficacy of antibiotic agents; conditions: Gram: neg
Acinetobacter baumannii = experiment: Expected efficacy of antibiotic agents; conditions: Gram: neg
Shigella dysenteriae = experiment: Expected efficacy of antibiotic agents; conditions: Gram: neg
Moraxella catarrhalis = experiment: Expected efficacy of antibiotic agents; conditions: Gram: neg
Providencia rettgeri = experiment: Expected efficacy of antibiotic agents; conditions: Gram: neg
Citrobacter freundii = experiment: Expected efficacy of antibiotic agents; conditions: Gram: neg
Campylobacter jejuni = experiment: Expected efficacy of antibiotic agents; conditions: Gram: neg
Klebsiella oxytoca = experiment: Expected efficacy of antibiotic agents; conditions: Gram: neg
[1] = system: Corynebacterium urealyticum; experiment: Expected efficacy of antibiotic agents; conditions: Gram: pos
Streptococcus pyogenes = experiment: Expected efficacy of antibiotic agents; conditions: Gram: pos
Bacteroides fragilis = experiment: Expected efficacy of antibiotic agents; conditions: Gram: anaer
Serratia marcescens = experiment: Expected efficacy of antibiotic agents; conditions: Gram: neg
Salmonella typhi = experiment: Expected efficacy of antibiotic agents; conditions: Gram: neg
Enterobacter aerogenes = experiment: Expected efficacy of antibiotic agents; conditions: Gram: neg
Pseudomonas fluorescens = experiment: Expected efficacy of antibiotic agents; conditions: Gram: neg
Pseudomonas aeruginosa = experiment: Expected efficacy of antibiotic agents; conditions: Gram: neg
Enterococcus faecium = experiment: Expected efficacy of antibiotic agents; conditions: Gram: pos
Morganella morganii = experiment: Expected efficacy of antibiotic agents; conditions: Gram: neg
Shigella boydii = experiment: Expected efficacy of antibiotic agents; conditions: Gram: neg
[2] = system: Staphylococcus aureus (MSSA); experiment: Expected efficacy of antibiotic agents; conditions: Gram: pos
Streptococcus agalactiae = experiment: Expected efficacy of antibiotic agents; conditions: Gram: pos
Shigella sonnei = experiment: Expected efficacy of antibiotic agents; conditions: Gram: neg
Bordetella pertussis = experiment: Expected efficacy of antibiotic agents; conditions: Gram: neg
Citrobacter diversus = experiment: Expected efficacy of antibiotic agents; conditions: Gram: neg
Peptostreptococcus = experiment: Expected efficacy of antibiotic agents; conditions: Gram: pos
Chlamydia pneumoniae = experiment: Expected efficacy of antibiotic agents; conditions: Gram: n/a
Enterobacter cloacae = experiment: Expected efficacy of antibiotic agents; conditions: Gram: neg
[3] = system: Haemophilus parainfluenzae; experiment: Expected efficacy of antibiotic agents; conditions: Gram: neg
Mycoplasma pneumoniae = experiment: Expected efficacy of antibiotic agents; conditions: Gram: n/a
Haemophilus influenzae = experiment: Expected efficacy of antibiotic agents; conditions: Gram: neg
Chlamydia trachomatis = experiment: Expected efficacy of antibiotic agents; conditions: Gram: n/a
Neisseria gonorrhoeae = experiment: Expected efficacy of antibiotic agents; conditions: Gram: neg
Bartonella bacilliformis = experiment: Expected efficacy of antibiotic agents; conditions: Gram: neg
[4] = system: Staphylococcus epidermidis; experiment: Expected efficacy of antibiotic agents; conditions: Gram: pos
[5] = system: Acinetobacter calcoaceticus; experiment: Expected efficacy of antibiotic agents; conditions: Gram: neg
Proteus vulgaris = experiment: Expected efficacy of antibiotic agents; conditions: Gram: neg
Acinetobacter lwoffii = experiment: Expected efficacy of antibiotic agents; conditions: Gram: neg
Haemophilus ducreyi = experiment: Expected efficacy of antibiotic agents; conditions: Gram: neg
Diphtheroids = experiment: Expected efficacy of antibiotic agents; conditions: Gram: pos
[6] = system: Viridans group streptococci; experiment: Expected efficacy of antibiotic agents; conditions: Gram: pos
Proteus mirabilis = experiment: Expected efficacy of antibiotic agents; conditions: Gram: neg
Neisseria meningitidis = experiment: Expected efficacy of antibiotic agents; conditions: Gram: neg
Enterobacter sakazakii = experiment: Expected efficacy of antibiotic agents; conditions: Gram: neg
Vibrio cholerae = experiment: Expected efficacy of antibiotic agents; conditions: Gram: neg
Corynebacterium jeikeium = experiment: Expected efficacy of antibiotic agents; conditions: Gram: pos
[7] = system: Klebsiella (Calymmato-bacterium) granulomatis; experiment: Expected efficacy of antibiotic agents; conditions: Gram: neg
Clostridium difficile = experiment: Expected efficacy of antibiotic agents; conditions: Gram: anaer
Klebsiella pneumoniae = experiment: Expected efficacy of antibiotic agents; conditions: Gram: neg
Escherichia coli = experiment: Expected efficacy of antibiotic agents; conditions: Gram: neg
Enterococcus faecalis = experiment: Expected efficacy of antibiotic agents; conditions: Gram: pos
Streptococcus pneumoniae = experiment: Expected efficacy of antibiotic agents; conditions: Gram: pos
[8] = system: Methicillin resistant staphaureus (MRSA); experiment: Expected efficacy of antibiotic agents; conditions: Gram: pos

CN[C@H](CC(C)C)C(=O)N[C@H]1C(=O)N[C@@H](CC(N)=O)C(=O)N[C@H]2C(=O)N[C@H]3C(=O)N[C@H](C(=O)N[C@H](C(=O)O)c4cc(O)cc(O)c4-c4cc3ccc4O)[C@H](O)c3ccc(c(Cl)c3)Oc3cc2cc(c3O[C@@H]2O[C@H](CO)[C@@H](O)[C@H](O)[C@H]2O[C@H]2C[C@](C)(N)[C@H](O)[C@H](C)O2)Oc2ccc(cc2Cl)[C@H]1O [Vancomycin]
yes, not VRE: Expected efficacy against Enterococcus faecium (Enterococcus faecium)
no: Expected efficacy against Providencia stuartii (Providencia stuartii) | Expected efficacy against Chlamydia psittaci (Chlamydia psittaci) | Expected efficacy against Shigella flexneri (Shigella flexneri) | Expected efficacy against Acinetobacter baumannii (Acinetobacter baumannii) | Expected efficacy against Rickettsiae (Rickettsiae) | Expected efficacy against Shigella dysenteriae (Shigella dysenteriae) | Expected efficacy against Moraxella catarrhalis (Moraxella catarrhalis) | Expected efficacy against Providencia rettgeri (Providencia rettgeri) | Expected efficacy against Citrobacter freundii (Citrobacter freundii) | Expected efficacy against Campylobacter jejuni (Campylobacter jejuni) | Expected efficacy against Klebsiella oxytoca (Klebsiella oxytoca) | Expected efficacy against Bacteroides fragilis (Bacteroides fragilis) | Expected efficacy against Serratia marcescens (Serratia marcescens) | Expected efficacy against Salmonella typhi (Salmonella typhi) | Expected efficacy against Enterobacter aerogenes (Enterobacter aerogenes) | Expected efficacy against Pseudomonas fluorescens (Pseudomonas fluorescens) | Expected efficacy against Pseudomonas aeruginosa (Pseudomonas aeruginosa) | Expected efficacy against Morganella morganii (Morganella morganii) | Expected efficacy against Shigella boydii (Shigella boydii) | Expected efficacy against Shigella sonnei (Shigella sonnei) | Expected efficacy against Francisella tularensis (Francisella tularensis) | Expected efficacy against Bordetella pertussis (Bordetella pertussis) | Expected efficacy against Citrobacter diversus (Citrobacter diversus) | Expected efficacy against Chlamydia pneumoniae (Chlamydia pneumoniae) | Expected efficacy against Enterobacter cloacae (Enterobacter cloacae) | Expected efficacy against Haemophilus parainfluenzae [3] | Expected efficacy against Mycoplasma pneumoniae (Mycoplasma pneumoniae) | Expected efficacy against Haemophilus influenzae (Haemophilus influenzae) | Expected efficacy against Chlamydia trachomatis (Chlamydia trachomatis) | Expected efficacy against Neisseria gonorrhoeae (Neisseria gonorrhoeae) | Expected efficacy against Bartonella bacilliformis (Bartonella bacilliformis) | Expected efficacy against Acinetobacter calcoaceticus [5] | Expected efficacy against Proteus vulgaris (Proteus vulgaris) | Expected efficacy against Acinetobacter lwoffii (Acinetobacter lwoffii) | Expected efficacy against Clostridium perfringens (Clostridium perfringens) | Expected efficacy against Brucella species (Brucella species) | Expected efficacy against Haemophilus ducreyi (Haemophilus ducreyi) | Expected efficacy against Yersinia pestis (Yersinia pestis) | Expected efficacy against Proteus mirabilis (Proteus mirabilis) | Expected efficacy against Neisseria meningitidis (Neisseria meningitidis) | Expected efficacy against Enterobacter sakazakii (Enterobacter sakazakii) | Expected efficacy against Vibrio cholerae (Vibrio cholerae) | Expected efficacy against Klebsiella (Calymmato-bacterium) granulomatis [7] | Expected efficacy against Klebsiella pneumoniae (Klebsiella pneumoniae) | Expected efficacy against Escherichia coli (Escherichia coli) | Expected efficacy against Legionella pneumophila (Legionella pneumophila)
yes: Expected efficacy against Corynebacterium urealyticum [1] | Expected efficacy against Streptococcus pyogenes (Streptococcus pyogenes) | Expected efficacy against Staphylococcus aureus (MSSA) [2] | Expected efficacy against Streptococcus agalactiae (Streptococcus agalactiae) | Expected efficacy against Peptostreptococcus (Peptostreptococcus) | Expected efficacy against Staphylococcus epidermidis [4] | Expected efficacy against Diphtheroids (Diphtheroids) | Expected efficacy against Viridans group streptococci [6] | Expected efficacy against Corynebacterium jeikeium (Corynebacterium jeikeium) | Expected efficacy against Clostridium difficile (Clostridium difficile)

NC[C@H]1O[C@H](O[C@H]2[C@H](O)[C@@H](O[C@H]3O[C@H](CO)[C@@H](O)[C@H](N)[C@H]3O)[C@H](N)C[C@@H]2N)[C@H](N)C[C@@H]1O [Tobramycin]
yes: Expected efficacy against Shigella flexneri (Shigella flexneri) | Expected efficacy against Shigella dysenteriae (Shigella dysenteriae) | Expected efficacy against Moraxella catarrhalis (Moraxella catarrhalis) | Expected efficacy against Citrobacter freundii (Citrobacter freundii) | Expected efficacy against Campylobacter jejuni (Campylobacter jejuni) | Expected efficacy against Pseudomonas aeruginosa (Pseudomonas aeruginosa) | Expected efficacy against Shigella sonnei (Shigella sonnei) | Expected efficacy against Enterobacter cloacae (Enterobacter cloacae) | Expected efficacy against Haemophilus ducreyi (Haemophilus ducreyi) | Expected efficacy against Yersinia pestis (Yersinia pestis; Gram: neg) | Expected efficacy against Proteus mirabilis (Proteus mirabilis) | Expected efficacy against Enterobacter sakazakii (Enterobacter sakazakii) | Expected efficacy against Klebsiella (Calymmato-bacterium) granulomatis [7] | Expected efficacy against Klebsiella pneumoniae (Klebsiella pneumoniae)
no: Expected efficacy against Chlamydia psittaci (Chlamydia psittaci; Gram: n/a) | Expected efficacy against Acinetobacter baumannii (Acinetobacter baumannii) | Expected efficacy against Corynebacterium urealyticum [1] | Expected efficacy against Streptococcus pyogenes (Streptococcus pyogenes) | Expected efficacy against Bacteroides fragilis (Bacteroides fragilis) | Expected efficacy against Enterococcus faecium (Enterococcus faecium) | Expected efficacy against Staphylococcus aureus (MSSA) [2] | Expected efficacy against Streptococcus agalactiae (Streptococcus agalactiae) | Expected efficacy against Bordetella pertussis (Bordetella pertussis) | Expected efficacy against Enterococcus faecalis (Enterococcus faecalis) | Expected efficacy against Peptostreptococcus (Peptostreptococcus) | Expected efficacy against Chlamydia pneumoniae (Chlamydia pneumoniae) | Expected efficacy against Mycoplasma pneumoniae (Mycoplasma pneumoniae) | Expected efficacy against Streptococcus pneumoniae (Streptococcus pneumoniae) | Expected efficacy against Chlamydia trachomatis (Chlamydia trachomatis) | Expected efficacy against Neisseria gonorrhoeae (Neisseria gonorrhoeae) | Expected efficacy against Staphylococcus epidermidis [4] | Expected efficacy against Acinetobacter calcoaceticus [5] | Expected efficacy against Acinetobacter lwoffii (Acinetobacter lwoffii) | Expected efficacy against Clostridium perfringens (Clostridium perfringens; Gram: anaer) | Expected efficacy against Diphtheroids (Diphtheroids) | Expected efficacy against Viridans group streptococci [6] | Expected efficacy against Neisseria meningitidis (Neisseria meningitidis) | Expected efficacy against Methicillin resistant staphaureus (MRSA) [8] | Expected efficacy against Vibrio cholerae (Vibrio cholerae) | Expected efficacy against Corynebacterium jeikeium (Corynebacterium jeikeium) | Expected efficacy against Clostridium difficile (Clostridium difficile) | Expected efficacy against Legionella pneumophila (Legionella pneumophila; Gram: neg)

Colistimethate
yes: Expected efficacy against Pseudomonas aeruginosa (Pseudomonas aeruginosa) | Expected efficacy against Staphylococcus aureus (MSSA) [2] | Expected efficacy against Enterobacter cloacae (Enterobacter cloacae) | Expected efficacy against Enterobacter sakazakii (Enterobacter sakazakii) | Expected efficacy against Klebsiella (Calymmato-bacterium) granulomatis [7] | Expected efficacy against Klebsiella pneumoniae (Klebsiella pneumoniae)
no: Expected efficacy against Providencia stuartii (Providencia stuartii) | Expected efficacy against Chlamydia psittaci (Chlamydia psittaci; Gram: n/a) | Expected efficacy against Moraxella catarrhalis (Moraxella catarrhalis) | Expected efficacy against Providencia rettgeri (Providencia rettgeri) | Expected efficacy against Corynebacterium urealyticum [1] | Expected efficacy against Streptococcus pyogenes (Streptococcus pyogenes) | Expected efficacy against Bacteroides fragilis (Bacteroides fragilis) | Expected efficacy against Serratia marcescens (Serratia marcescens) | Expected efficacy against Enterococcus faecium (Enterococcus faecium) | Expected efficacy against Streptococcus agalactiae (Streptococcus agalactiae) | Expected efficacy against Bordetella pertussis (Bordetella pertussis) | Expected efficacy against Enterococcus faecalis (Enterococcus faecalis) | Expected efficacy against Peptostreptococcus (Peptostreptococcus) | Expected efficacy against Chlamydia pneumoniae (Chlamydia pneumoniae) | Expected efficacy against Haemophilus parainfluenzae [3] | Expected efficacy against Mycoplasma pneumoniae (Mycoplasma pneumoniae) | Expected efficacy against Streptococcus pneumoniae (Streptococcus pneumoniae) | Expected efficacy against Chlamydia trachomatis (Chlamydia trachomatis) | Expected efficacy against Neisseria gonorrhoeae (Neisseria gonorrhoeae) | Expected efficacy against Staphylococcus epidermidis [4] | Expected efficacy against Proteus vulgaris (Proteus vulgaris) | Expected efficacy against Brucella species (Brucella species; Gram: neg) | Expected efficacy against Diphtheroids (Diphtheroids) | Expected efficacy against Viridans group streptococci [6] | Expected efficacy against Proteus mirabilis (Proteus mirabilis) | Expected efficacy against Neisseria meningitidis (Neisseria meningitidis) | Expected efficacy against Methicillin resistant staphaureus (MRSA) [8] | Expected efficacy against Vibrio cholerae (Vibrio cholerae) | Expected efficacy against Corynebacterium jeikeium (Corynebacterium jeikeium) | Expected efficacy against Clostridium difficile (Clostridium difficile) | Expected efficacy against Legionella pneumophila (Legionella pneumophila; Gram: neg)

— US9717748B2, “Compositions and methods for treating an infection” (CMPD LICENSING, LLC, priority 2015, dated 2017)
